Laboratory results reported in US20110085978A1, “NOVEL QUINOLINYLAMIDE DERIVATIVES USEFUL AS MODULATORS OF DOPAMINE AND SEROTONIN RECEPTORS” (NeuroSearch A/S, priority 2008, published 2011).

System: MK801 induced hyperactivity in female NMRI mice
Assay: MK801 induced hyperactivity
Format: in vivo
Conditions: test compound subcutaneously 30 minutes before test start at 3, 10, 30 mg/kg, MK801 0.2 mg/kg ip
Experimental: Female NMRI mice (Taconic M&B, P.O. box 1079, DK-8680 Ry, Denmark) are kept in a ventilated closed rack (Scantainer, Scanbur Ltd., Denmark) at constant temperature (21° C.) and humidity (60-70%) with a 7:00 a.m light/7:00 p.m dark cycle. Food (altromin rat pellets) and water were available ad libitum.
Experiments were conducted during daytime in the light phase. The animals were habituated to the experimental room approximately 24 hours before start of the experiments.
MK801 induced hyperactivity was measured in automated activity frames (TSE Home Cage Activity Monitoring System, MoTil, TSE technical & scientific equipment GmbH, Germany) equipped with infrared photobeam emitters and sensors. MK801 was administered in a dose of 0.2 mg/kg ip immediately before test start.
Test compound was pretreated subcutaneously 30 minutes before test start at the following doses 3, 10, 30 mg/kg in a dose volume of 10 ml/kg.

SMILES | Minimal Effective Dose (M.E.D) that significantly reduces MK801 induced hyperactivity
COc1ccccc1N1CCN(CCCCC(=O)Nc2ccc3ncccc3c2)CC1 [Compound A3, 5-[4-(2-Methoxy-phenyl)-piperazin-1-yl]-pentanoic acid quinolin-6-ylamide] | 10 mg/kg
O=C(CCCCN1CCC(c2ccccc2)CC1)Nc1ccc2ncccc2c1 [Compound A4, 5-(4-Phenyl-piperidin-1-yl)-pentanoic acid quinolin-6-ylamide] | 10 mg/kg
